Measurements reported in ChEMBL document CHEMBL1201862, “PubChem BioAssay data set” (2004).
The source made the active and inactive calls.

Columns and labels:
[1] = growth inhibition of PfATP4-mutant resistant parasites – NITD609-resistant line, SYBR Green, dry powder, dose response (AID 1159571); assay type: functional, cell-based;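 note: parasites synchronized at ring stage by sorbitol before testing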
[2] = Dd2 malaria parasite growth inhibition potency – SYBR Green, dry powder samples, dose response (AID 1159566); assay type: functional, cell-based;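 note: potency for growth inhibition with lower SYBR green DNA signal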
[3] = growth inhibition of yeast DHODH-expressing 3D7 parasites – SYBR Green, dry powder samples, dose response (AID 1159570); assay type: functional, cell-based;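 note: parasite growth measured after 72 hours of compound exposure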
[4] = toxicity to human HepG2 hepatoma cells – cell-based, plate reader, dry powder samples, cytotoxicity control, dose response (AID 1159569); assay type: functional;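 note: inhibitor potency with signal falling toward the positive control level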
[5] = P. falciparum Dd2 growth inhibitors, dose response, SYBR Green, cherry-picked samples (AID 1159567); assay type: functional, cell-based
[6] = antimalarial activity against Dd2 parasites – SYBR Green fluorescence, erythrocytes, dry powder, set 2, dose response (AID 1159574); assay type: functional, cell-based
[7] = viability of HCT116 lacking mutant beta-catenin – cell-based, human colon tumor, dose response (AID 1045); assay type: functional;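 note: HCT116 colon tumor cells with beta catenin knocked out; cells exposed to compound for 60 hours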
[8] = IC50 of Artemis nuclease activity blockers – biochemical, fluorescence intensity, dose response (AID 720701); assay type: functional;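 note: Artemis endonuclease enzyme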
[9] = biological target: DNA (cytosine-5)-methyltransferase 1 (Homo sapiens, UniProt P26358); assay: inhibition of DNA methylation by DNMT1 – biochemical, fluorescent molecular beacon, confirmation (AID 602386); assay type: functional
[10] = biological target: T1, Calpain-2 catalytic subunit (Sus scrofa, UniProt P43367); assay: m-calpain protease blockers, concentration series – biochemical, fluorogenic peptide substrate, dose response (AID 1420); assay type: functional
T1 sequence (P43367 whole entry): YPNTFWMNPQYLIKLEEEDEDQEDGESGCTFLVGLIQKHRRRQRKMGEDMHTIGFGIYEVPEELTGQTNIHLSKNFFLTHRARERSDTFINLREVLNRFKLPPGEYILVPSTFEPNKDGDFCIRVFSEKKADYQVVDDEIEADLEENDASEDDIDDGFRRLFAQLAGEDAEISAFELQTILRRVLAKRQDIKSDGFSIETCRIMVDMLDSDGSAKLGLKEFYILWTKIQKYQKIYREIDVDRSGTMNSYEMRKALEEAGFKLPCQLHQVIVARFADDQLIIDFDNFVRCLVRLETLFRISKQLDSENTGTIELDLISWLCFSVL

[11] = viability of PTEN-deleted HCT116 cells – cell-based, HCT116 PTEN knockout, dose response (AID 1047); assay type: functional;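 note: HCT116 colon tumor cells with PTEN knocked out; cells exposed to compound for 60 hours before readout; potency for loss of cell viability measured by luminescence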
[12] = biological target: T2, Mannose-6-phosphate isomerase (Homo sapiens, UniProt P34949); assay: MPI inhibition at elevated mannose 6-phosphate – biochemical, fluorescence intensity, high mannose 6-phosphate, primary screen (AID 1220)
T2 sequence (P34949 whole entry): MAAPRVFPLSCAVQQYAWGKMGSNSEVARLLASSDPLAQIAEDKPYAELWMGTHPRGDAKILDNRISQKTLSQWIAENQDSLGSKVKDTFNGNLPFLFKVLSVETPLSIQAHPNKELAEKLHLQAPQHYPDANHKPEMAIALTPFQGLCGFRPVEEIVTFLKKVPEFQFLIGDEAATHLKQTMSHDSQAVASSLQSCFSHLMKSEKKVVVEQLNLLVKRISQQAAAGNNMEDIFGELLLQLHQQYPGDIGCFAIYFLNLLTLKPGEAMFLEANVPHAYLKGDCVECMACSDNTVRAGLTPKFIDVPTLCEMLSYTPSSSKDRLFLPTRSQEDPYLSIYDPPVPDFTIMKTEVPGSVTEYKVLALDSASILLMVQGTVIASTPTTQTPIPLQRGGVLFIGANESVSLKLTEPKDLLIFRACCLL

HEK293 = assay: EBV LMP1 TES2 canonical NF-kB signalling blockers – cell-based, HEK293, luciferase, cherry-pick, dose response (AID 588343); assay type: functional; details: Homo sapiens
[13] = biological target: Hepatocyte nuclear factor 4-alpha (Homo sapiens, UniProt P41235); assay type: functional, cell-based;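 note: biochemical luminescence-based dose-response counterscreen measuring inhibition of HNF4 dimerization, run alongside a screen for blockers of ABHD5–perilipin-5 interaction; split luciferase complementation of HNF4 fusion proteins in cell lysate measuring dimerization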
Hexokinase HKDC1 = biological target: T3, Hexokinase HKDC1 (Homo sapiens, UniProt Q2TB90); assay: inhibition of HKDC1 glucose phosphorylation – biochemical, W721R variant, dose response (AID 504729); assay type: functional
T3 sequence (Q2TB90 whole entry): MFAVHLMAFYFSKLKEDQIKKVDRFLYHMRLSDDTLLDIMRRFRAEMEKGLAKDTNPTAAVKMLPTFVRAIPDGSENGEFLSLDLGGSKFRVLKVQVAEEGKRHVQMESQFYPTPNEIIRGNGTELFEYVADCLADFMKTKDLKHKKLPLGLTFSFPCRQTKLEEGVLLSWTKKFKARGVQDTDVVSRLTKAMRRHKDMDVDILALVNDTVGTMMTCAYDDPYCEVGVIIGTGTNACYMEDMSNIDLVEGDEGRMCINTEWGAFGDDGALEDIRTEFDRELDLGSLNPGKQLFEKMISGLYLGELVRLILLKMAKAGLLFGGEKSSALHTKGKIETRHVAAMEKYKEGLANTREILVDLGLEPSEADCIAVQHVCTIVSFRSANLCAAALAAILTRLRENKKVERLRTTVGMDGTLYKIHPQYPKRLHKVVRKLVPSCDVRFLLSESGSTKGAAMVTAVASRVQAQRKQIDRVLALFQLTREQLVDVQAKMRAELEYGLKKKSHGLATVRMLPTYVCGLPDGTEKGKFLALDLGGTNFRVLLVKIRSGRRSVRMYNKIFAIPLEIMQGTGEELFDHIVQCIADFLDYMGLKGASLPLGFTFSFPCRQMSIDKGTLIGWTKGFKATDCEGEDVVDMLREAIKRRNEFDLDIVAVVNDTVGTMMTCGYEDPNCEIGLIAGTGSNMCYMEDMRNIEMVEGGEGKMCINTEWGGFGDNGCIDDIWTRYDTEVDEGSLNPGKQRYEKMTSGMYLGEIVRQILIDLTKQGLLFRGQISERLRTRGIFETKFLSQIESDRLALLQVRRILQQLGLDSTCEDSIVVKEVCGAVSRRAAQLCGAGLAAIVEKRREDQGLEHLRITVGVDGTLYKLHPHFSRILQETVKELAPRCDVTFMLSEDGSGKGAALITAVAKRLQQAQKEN

[14] = SNU-C1 cell viability reduction, dose response, CellTiter-Glo luminescence (AID 1117323); assay type: functional, cell-based
[15] = Reduced DLD-1 viability, concentration-response, CellTiter-Glo luminescence (AID 1117352); assay type: functional
[16] = HCT116 cell viability decrease, GSK3B pretreatment – CellTiter-Glo, IC50, dose response (AID 1117339); assay type: functional; details: HCT-116
[17] = CellTiter-Glo luminescence survival assay, SW480 colon tumor line, concentration-response curve, half-maximal inhibitory concentration (AID 1117338); assay type: functional
[18] = cytotoxicity toward HT-29 cells – cell-based, CellTiter-Glo luminescence, IC50, dose response (AID 1117330); assay type: functional
[19] = cytotoxicity toward Colo320 cells – cell-based, CellTiter-Glo luminescence, IC50, dose response (AID 1117334); assay type: functional; details: COLO 320
[20] = cytotoxicity toward HCT116 cells – cell-based, CellTiter-Glo luminescence, IC50, dose response (AID 1117332); assay type: functional; details: HCT-116
[21] = RKO cell viability reduction, dose response, CellTiter-Glo luminescence (AID 1117322); assay type: functional
Protein Tat = Protein Tat (Human immunodeficiency virus type 1 group M subtype B (isolate HXB2)(HIV-1), UniProt P04608); assay type: functional;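 note: tat binding to TAR RNA read out by fluorescence polarization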
[22] = viability inhibitors of stage V gametocytes – luminescence, dose response (AID 1117278); assay type: functional, cell-based;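 note: gametocytes exposed to compound for 24 hours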
[23] = viability loss in human Jurkat cells – cell-based, luminescence, cytotoxicity control for P. falciparum gametocyte viability project, dose response (AID 1117277); assay type: functional;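 note: potency reflects loss of cellular ATP meaning fewer viable cells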
Transthyretin = Transthyretin (Homo sapiens, UniProt P02766); assay: Luminescence-based cell-based high throughput dose response assay to identify activators of Transthyretin (TTR) transcription.; assay type: functional
[24] = biological target: RNA-editing ligase 1, mitochondrial (Trypanosoma brucei brucei, UniProt P86926); assay: inhibition of trypanosome RNA editing ligase – biochemical, fluorescence, Trypanosoma brucei, dose response (AID 1117295); assay type: functional
[25] = biological target: Bifunctional protein GlmU (Mycobacterium tuberculosis, UniProt P9WMN3); assay: Inhibitors of Mycobacterial Glucosamine-1-phosphate acetyl transferase (GlmU). Secondary screen.; parameters: species or system Mycobacterium tuberculosis H37Rv
SUMO-activating enzyme [26] = biological target: T4, SUMO-activating enzyme (Homo sapiens, UniProt Q9UBT2); assay: blockers of SAE1/SAE2–UBC9 SUMO transfer – biochemical, HTRF, uHTS, primary screen (AID 2006); assay type: protein-complex assay
Caspase-6 = biological target: T5, Caspase-6 (Homo sapiens, UniProt P55212); assay: inhibition of CASP6 peptide cleavage – biochemical, VEID-R110 fluorescence, cherry-pick, dose response (AID 720632)
T5 sequence (P55212 whole entry): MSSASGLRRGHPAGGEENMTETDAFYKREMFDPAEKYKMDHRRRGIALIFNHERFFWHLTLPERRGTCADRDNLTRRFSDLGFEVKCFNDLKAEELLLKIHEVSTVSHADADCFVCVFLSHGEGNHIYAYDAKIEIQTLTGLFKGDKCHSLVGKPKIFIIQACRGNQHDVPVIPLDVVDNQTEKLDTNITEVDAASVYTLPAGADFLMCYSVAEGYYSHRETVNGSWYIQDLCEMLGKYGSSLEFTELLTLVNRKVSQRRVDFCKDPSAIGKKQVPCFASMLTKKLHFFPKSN

SUMO-activating enzyme [27] = biological target: T4, SUMO-activating enzyme; assay: blockers of UBC9-mediated SUMO conjugation – biochemical, AlphaScreen, SUMOylation inhibitor project, confirmation (AID 2018); assay type: functional
[28] = biological target: Induced myeloid leukemia cell differentiation protein Mcl-1 (Homo sapiens, UniProt Q07820); assay type: functional
Chain of Induced myeloid leukemia cell differentiation protein Mcl-1 (Q07820 whole entry): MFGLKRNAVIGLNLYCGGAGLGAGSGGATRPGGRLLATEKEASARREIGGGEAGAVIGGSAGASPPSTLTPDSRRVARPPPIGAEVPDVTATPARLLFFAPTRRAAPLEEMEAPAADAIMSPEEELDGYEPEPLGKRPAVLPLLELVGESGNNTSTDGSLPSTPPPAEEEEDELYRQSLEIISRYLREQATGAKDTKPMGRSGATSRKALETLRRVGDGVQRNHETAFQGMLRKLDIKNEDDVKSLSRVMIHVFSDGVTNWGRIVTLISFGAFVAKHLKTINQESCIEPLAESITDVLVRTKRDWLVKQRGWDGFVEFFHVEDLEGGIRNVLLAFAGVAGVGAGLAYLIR

T4 sequence (Q9UBE0 whole entry): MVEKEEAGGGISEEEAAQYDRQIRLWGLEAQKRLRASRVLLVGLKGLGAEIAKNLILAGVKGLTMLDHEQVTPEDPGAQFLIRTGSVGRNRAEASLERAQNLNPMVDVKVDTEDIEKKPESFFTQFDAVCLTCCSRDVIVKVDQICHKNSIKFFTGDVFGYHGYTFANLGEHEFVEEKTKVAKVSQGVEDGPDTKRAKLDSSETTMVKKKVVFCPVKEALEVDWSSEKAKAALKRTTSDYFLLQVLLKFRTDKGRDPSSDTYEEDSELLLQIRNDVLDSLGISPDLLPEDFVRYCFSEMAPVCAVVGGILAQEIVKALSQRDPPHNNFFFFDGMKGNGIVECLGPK
T4 sequence (Q9UBT2 whole entry): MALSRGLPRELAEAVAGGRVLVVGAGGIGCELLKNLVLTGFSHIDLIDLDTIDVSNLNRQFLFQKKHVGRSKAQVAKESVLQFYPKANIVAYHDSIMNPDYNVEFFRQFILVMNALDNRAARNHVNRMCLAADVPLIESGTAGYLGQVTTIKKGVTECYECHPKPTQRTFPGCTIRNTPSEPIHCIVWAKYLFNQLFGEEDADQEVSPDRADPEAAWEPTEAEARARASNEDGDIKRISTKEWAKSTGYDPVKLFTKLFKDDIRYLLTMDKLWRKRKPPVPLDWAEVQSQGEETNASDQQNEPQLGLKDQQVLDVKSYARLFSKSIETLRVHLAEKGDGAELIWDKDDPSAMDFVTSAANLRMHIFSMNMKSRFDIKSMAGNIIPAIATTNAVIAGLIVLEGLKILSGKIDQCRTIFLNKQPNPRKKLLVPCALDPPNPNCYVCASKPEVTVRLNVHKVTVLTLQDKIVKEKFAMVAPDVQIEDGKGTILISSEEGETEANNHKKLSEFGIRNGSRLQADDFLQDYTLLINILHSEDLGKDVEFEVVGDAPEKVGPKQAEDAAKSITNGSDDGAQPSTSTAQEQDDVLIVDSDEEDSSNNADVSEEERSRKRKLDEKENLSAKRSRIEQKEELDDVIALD
Chain of Protein Tat (P04608 whole entry): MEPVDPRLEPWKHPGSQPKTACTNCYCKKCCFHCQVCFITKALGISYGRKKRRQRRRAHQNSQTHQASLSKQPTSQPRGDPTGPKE
Chain of Hepatocyte nuclear factor 4-alpha (P41235 whole entry, the tested form may be a part): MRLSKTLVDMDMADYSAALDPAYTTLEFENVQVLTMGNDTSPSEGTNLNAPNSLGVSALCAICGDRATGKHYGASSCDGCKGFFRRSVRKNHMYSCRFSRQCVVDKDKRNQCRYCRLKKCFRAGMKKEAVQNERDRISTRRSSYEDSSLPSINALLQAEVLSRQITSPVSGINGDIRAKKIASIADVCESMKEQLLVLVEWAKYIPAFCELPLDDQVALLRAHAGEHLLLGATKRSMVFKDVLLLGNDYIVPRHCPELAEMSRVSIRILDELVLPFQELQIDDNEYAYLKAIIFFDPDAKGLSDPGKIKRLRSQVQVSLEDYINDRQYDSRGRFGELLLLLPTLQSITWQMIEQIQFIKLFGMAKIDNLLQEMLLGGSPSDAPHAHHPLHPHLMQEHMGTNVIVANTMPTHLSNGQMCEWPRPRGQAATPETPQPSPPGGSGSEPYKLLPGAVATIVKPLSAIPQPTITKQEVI
Chain of DNA (cytosine-5)-methyltransferase 1 (P26358 whole entry): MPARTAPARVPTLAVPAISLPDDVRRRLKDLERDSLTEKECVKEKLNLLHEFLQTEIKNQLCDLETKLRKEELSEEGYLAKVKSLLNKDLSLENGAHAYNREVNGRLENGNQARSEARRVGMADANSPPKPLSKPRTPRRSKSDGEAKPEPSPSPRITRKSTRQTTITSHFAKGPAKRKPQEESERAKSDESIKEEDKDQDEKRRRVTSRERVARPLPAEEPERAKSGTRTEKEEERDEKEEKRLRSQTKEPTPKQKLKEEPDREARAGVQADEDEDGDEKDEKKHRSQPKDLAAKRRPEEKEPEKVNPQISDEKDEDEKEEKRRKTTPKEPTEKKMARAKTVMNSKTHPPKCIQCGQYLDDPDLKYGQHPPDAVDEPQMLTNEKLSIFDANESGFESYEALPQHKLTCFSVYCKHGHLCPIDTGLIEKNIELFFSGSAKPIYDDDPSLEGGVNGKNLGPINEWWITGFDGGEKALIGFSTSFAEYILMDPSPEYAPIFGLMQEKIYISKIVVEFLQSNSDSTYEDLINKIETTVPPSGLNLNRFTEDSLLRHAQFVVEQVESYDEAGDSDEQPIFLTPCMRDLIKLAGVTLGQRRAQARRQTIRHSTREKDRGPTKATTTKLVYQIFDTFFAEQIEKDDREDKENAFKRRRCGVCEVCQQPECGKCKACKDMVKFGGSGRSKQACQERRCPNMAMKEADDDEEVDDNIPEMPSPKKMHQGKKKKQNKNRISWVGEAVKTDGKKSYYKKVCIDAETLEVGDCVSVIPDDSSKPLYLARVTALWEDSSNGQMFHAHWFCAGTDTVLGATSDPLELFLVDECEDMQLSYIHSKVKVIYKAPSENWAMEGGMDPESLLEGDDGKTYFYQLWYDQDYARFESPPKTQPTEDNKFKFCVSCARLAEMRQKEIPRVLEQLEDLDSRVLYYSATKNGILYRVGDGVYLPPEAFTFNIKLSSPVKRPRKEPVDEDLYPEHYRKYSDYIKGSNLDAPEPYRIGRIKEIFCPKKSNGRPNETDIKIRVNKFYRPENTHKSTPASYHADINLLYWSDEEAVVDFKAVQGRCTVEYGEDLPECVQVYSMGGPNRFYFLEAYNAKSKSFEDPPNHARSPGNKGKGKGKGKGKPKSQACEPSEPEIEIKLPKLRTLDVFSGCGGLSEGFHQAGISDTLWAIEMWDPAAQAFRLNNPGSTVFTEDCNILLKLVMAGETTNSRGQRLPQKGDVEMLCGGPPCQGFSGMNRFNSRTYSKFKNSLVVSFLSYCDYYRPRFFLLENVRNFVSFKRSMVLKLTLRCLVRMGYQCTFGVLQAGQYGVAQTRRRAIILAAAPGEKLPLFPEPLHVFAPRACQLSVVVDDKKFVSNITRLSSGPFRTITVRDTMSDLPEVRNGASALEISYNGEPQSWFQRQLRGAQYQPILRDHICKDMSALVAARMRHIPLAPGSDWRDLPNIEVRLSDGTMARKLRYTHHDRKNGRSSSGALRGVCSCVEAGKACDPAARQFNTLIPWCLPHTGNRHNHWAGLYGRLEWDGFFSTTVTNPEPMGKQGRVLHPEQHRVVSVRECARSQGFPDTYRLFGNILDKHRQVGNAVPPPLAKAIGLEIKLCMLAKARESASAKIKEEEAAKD
Chain of Bifunctional protein GlmU (P9WMN3 whole entry): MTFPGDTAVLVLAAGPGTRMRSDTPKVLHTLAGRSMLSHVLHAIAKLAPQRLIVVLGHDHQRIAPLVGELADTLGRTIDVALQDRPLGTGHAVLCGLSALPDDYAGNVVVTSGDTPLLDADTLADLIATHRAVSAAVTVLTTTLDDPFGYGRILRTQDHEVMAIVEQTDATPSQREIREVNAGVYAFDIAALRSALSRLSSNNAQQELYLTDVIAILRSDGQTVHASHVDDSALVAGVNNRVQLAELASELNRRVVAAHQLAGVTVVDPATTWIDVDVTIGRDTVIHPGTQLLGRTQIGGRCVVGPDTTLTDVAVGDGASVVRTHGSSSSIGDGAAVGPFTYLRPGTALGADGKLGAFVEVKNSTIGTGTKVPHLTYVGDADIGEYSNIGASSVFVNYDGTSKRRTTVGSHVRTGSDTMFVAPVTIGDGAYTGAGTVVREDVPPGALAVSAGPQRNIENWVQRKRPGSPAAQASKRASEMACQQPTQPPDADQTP
Chain of RNA-editing ligase 1, mitochondrial (P86926 whole entry): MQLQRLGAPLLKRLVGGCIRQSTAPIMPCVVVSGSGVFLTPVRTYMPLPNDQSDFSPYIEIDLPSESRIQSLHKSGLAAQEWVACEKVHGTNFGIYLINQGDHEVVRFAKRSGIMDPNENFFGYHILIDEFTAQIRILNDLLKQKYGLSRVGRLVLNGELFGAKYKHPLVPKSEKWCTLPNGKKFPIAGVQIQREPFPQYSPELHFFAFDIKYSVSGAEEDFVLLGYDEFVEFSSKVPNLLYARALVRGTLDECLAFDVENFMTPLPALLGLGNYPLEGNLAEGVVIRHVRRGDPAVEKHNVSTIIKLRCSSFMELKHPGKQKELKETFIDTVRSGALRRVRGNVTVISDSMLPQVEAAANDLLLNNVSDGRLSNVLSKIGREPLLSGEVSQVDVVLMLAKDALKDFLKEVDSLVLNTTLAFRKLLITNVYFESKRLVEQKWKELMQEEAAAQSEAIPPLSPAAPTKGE

COc1cccc(C#Cc2ccc([C@H]3[C@@H](CO)N4C(=O)CN(C(=O)Cc5ccccc5)C[C@H]34)cc2)c1
AC50 [1]: 36.3 nM (active) | AC50 [2]: 30.1 nM (active) | AC50 [3]: 114 nM (active) | AC50 [4]: 21100 nM (active) | AC50 [5]: < 300 nM (active) | AC50 [6]: 19.5 nM (active)

Cc1oc2c(c1C(=O)c1ccc(Cl)cc1)C(=O)C(=O)c1ccccc1-2
EC50 [7]: 2360 nM (active) | IC50 [8]: 1120 nM (active) | IC50 [9]: 6050 nM (active) | IC50 [10]: < 400 nM (not active) | EC50 [11]: 2630 nM (active) | IC50 [12]: > 50000 nM (not active) | AC50 (HEK293): 11700 nM (active) | IC50 [13]: 3580 nM (active) | IC50 (Hexokinase HKDC1): 8830 nM (active)

O=C(Nc1ccc(Br)cc1)c1cc(Br)c(Br)s1 [TIBROFAN]
IC50 [14]: 1100 nM (active) | IC50 [15]: 335 nM (active) | IC50 [16]: 342 nM (active) | IC50 [17]: 123 nM (active) | IC50 [18]: 520 nM (active) | IC50 [19]: 18 nM (active) | IC50 [20]: 541 nM (active) | IC50 [21]: 431 nM (active)

COc1ccc(C2CC(=O)Oc3cc(OC)ccc32)cc1 (centres undefined)
IC50 (Protein Tat): > 100000 nM (active)

Nc1ccc(-c2cnc(-c3ccc(N)cc3)nc2)cc1
IC50 [22]: > 109000 nM (inactive) | IC50 [23]: > 83300 nM (inactive)

Cc1ccc(/C=N/NC(=O)c2csc(C)c2)o1
EC50 (Transthyretin): > 167000 nM (inactive)

COC(=O)C1=C(C)N(Cc2cccc(C(F)(F)F)c2)C(NCc2cc(OC)c(OC)c(OC)c2)=NC1c1ccccc1C(F)(F)F (centres undefined)
IC50 [24]: > 96600 nM (inactive)

O=C(O)c1cccc(Cn2c(Cl)c(/C=N/NC(=O)c3cc4ccccc4cc3O)sc2=O)c1
IC50 [25]: 134000 nM (active) | IC50 (SUMO-activating enzyme [26]): 24100 nM (active) | IC50 [10]: > 50000 nM (not active) | AC50 (Caspase-6): 18100 nM (active) | IC50 (SUMO-activating enzyme [27]): 1860 nM (active) | IC50 [28]: 3740 nM (active)
